Experimental data taken from patent US9375000B2, “Pesticidal arylpyrrolidines” (Bayer Intellectual Property GmbH, priority 2011, dated 2016).

What was measured:
Format in all cases: in vivo
[1] = system: Two-Spotted Spider Mite (Tetranychus urticae); assay: Two-spotted spider mite (Tetranychus urticae) spray test on kidney bean; details: after 7 days
Procedure: (§1) Unless not mentioned otherwise, the test solutions were prepared as follows:
(§2) Solvent: 3 parts by weight Dimethylformamide
(§3) Emulsifier: 1 part by weight Polyoxyethylene alkyl phenyl ether
(§4) In order to make an appropriate formulation of an active compound, 1 part by weight of the active compound is mixed with the above mentioned amount of solvent and emulsifier and the mixture is diluted with water to a prescribed concentration. Ammonium salt or ammonium salt and penetration enhancer in a dosage of 1000 ppm are added to the desired concentration if necessary.
50 to 100 adult mites of Tetranychus urticae were inoculated to leaves of kidney bean at two-leaf stage planted in a pot of 6 cm in diameter. After one day, test solution at the appropriate concentration was sprayed thereon in a sufficient amount using a spray gun. After the spraying, the plant pot was placed inside a greenhouse, and after 7 days, the acaricidal activity was calculated. An acaricidal activity of 100% means that all mites were killed, whereas an acaricidal activity of 0% means that no mite was killed.

[2] = system: Cucurbit Leaf Beetle (Aulacophora femoralis); assay: Cucurbit leaf beetle (Aulacophora femoralis) cucumber leaf dip test; details: after 7 days
Procedure: as §1, §2, §3, §4
Leaves of cucumber were immersed in the test solution at the appropriate concentration, and the leaves were dried in air. The leaves were then put in a plastic cup containing sterilized black soil and five Aulacophora femoralis at second instar larvae were released in the cup. The cups were placed in a temperature-controlled chamber at 25° C. After 7 days, the number of dead larvae was counted, and thus the insecticidal activity was calculated. An insecticidal activity of 100% means that all larvae were killed, whereas an insecticidal activity of 0% means that no larva was killed.

[3] = system: Larvae of Spodoptera litura; assay: Larvae of Spodoptera litura, method using artificial feeds; details: artificial feed, after 7 days
Procedure: as §1, §2, §3, §4
[A Method Using Artificial Feeds (Trade Name: Insecta LFM, Manufactured by Nosan Corporation)]
Powdery artificial feeds (2.3 g) were added to a plastic cup (diameter: 7.5 cm, height: 4 cm) to achieve a certain thickness. Water-diluted liquid (5 ml) of the active compound prepared above having predetermined concentration was evenly poured thereto and allowed to stand until the feeds were solidified. Five of the 3rd-instar larvae of Spodoptera litura were released in respective cups, and covered. The cups were put in a temperature controlled room at 25° C. and humidity of 50 to 60%, and the number of dead larvae after 7 days was determined to calculate the pesticidal ratio. 100% pesticidal ratio means death of all the larvae, while 0% pesticidal ratio means no dead larvae.

[4] = active compound concentration 20 ppm
[5] = active compound concentration 4 ppm

Structure (SMILES) | acaricidal activity [1, 4] [%] | insecticidal activity [2, 4] [%] | insecticidal activity (pesticidal ratio) [3, 4] [%] | insecticidal activity [2, 5] [%] | insecticidal activity (pesticidal ratio) [3, 5] [%] | acaricidal activity [1, 5] [%] | pest or weed control at 20 ppm ([1]; Tetranychus urticae, 168 h, active compound concentration 20 ppm, read-out: acaricidal activity) [%] | pest or weed control at 20 ppm ([3]; Spodoptera litura, 168 h, active compound concentration 20 ppm, read-out: insecticidal activity (pesticidal ratio)) [%]
CS(=O)(=O)CC(=O)NCc1ccc(N2CCC(c3cc(Cl)c(Cl)c(Cl)c3)(C(F)(F)F)C2O)cc1C(F)(F)F (mixture of isomers) [A1-55] | 100 | 100 | 100 |  |  |  |  | 
Cc1cc(N2CCC(c3cc(Cl)c(Cl)c(Cl)c3)(C(F)(F)F)C2O)ccc1CNC(=O)C1CC1 (mixture of isomers) [A1-132] | 100 | 100 | 100 |  |  |  |  | 
CCC(=O)NCc1ccc(N2CCC(c3cc(Cl)c(Cl)c(Cl)c3)(C(F)(F)F)C2O)cc1F (mixture of isomers) [A1-151] | 100 | 100 | 100 |  |  |  |  | 
O=C(NCc1ccc(N2CCC(c3cc(Cl)c(Cl)c(Cl)c3)(C(F)(F)F)C2O)cc1F)C1CC1 (mixture of isomers) [A1-154] | 100 | 100 | 100 |  |  |  |  | 
CC(=O)NCc1ccc(N2CCC(c3cc(Cl)c(Cl)c(Cl)c3)(C(F)(F)F)C2O)cc1Br (mixture of isomers) [A1-161] | 100 | 100 | 100 |  |  |  |  | 
O=C(NCc1ccc(N2CCC(c3cc(Cl)c(Cl)c(Cl)c3)(C(F)(F)F)C2O)cc1Br)C1CC1 (mixture of isomers) [A1-165] | 100 | 100 | 100 |  |  |  |  | 
CCC(=O)NCc1ccc(N2CCC(c3cc(C(F)(F)F)cc(C(F)(F)F)c3)(C(F)(F)F)C2O)cc1C (mixture of isomers) [A1-184] | 100 | 100 | 100 |  |  |  |  | 
Cc1cc(N2CCC(c3cc(C(F)(F)F)cc(C(F)(F)F)c3)(C(F)(F)F)C2O)ccc1CNC(=O)C1CC1 (mixture of isomers) [A1-187] | 100 | 100 | 100 |  |  |  |  | 
CC(=O)NCc1ccc(N2CCC(c3cc(C(F)(F)F)cc(C(F)(F)F)c3)(C(F)(F)F)C2O)cc1F (mixture of isomers) [A1-205] | 100 | 100 | 100 |  |  |  |  | 
CCC(=O)NCc1ccc(N2CCC(c3cc(C(F)(F)F)cc(C(F)(F)F)c3)(C(F)(F)F)C2O)cc1F (mixture of isomers) [A1-206] | 100 | 100 | 100 |  |  |  |  | 
O=C(NCc1ccc(N2CCC(c3cc(C(F)(F)F)cc(C(F)(F)F)c3)(C(F)(F)F)C2O)cc1F)C1CC1 (mixture of isomers) [A1-209] | 100 | 100 | 100 |  |  |  |  | 
CC(=O)NC(C)c1ccc(N2CCC(c3cc(Cl)c(Cl)c(Cl)c3)(C(F)(F)F)C2O)cc1 (mixture of isomers) [A2-12] | 100 |  | 100 |  |  |  |  | 
CC(NC(=O)C1CC1)c1ccc(N2CCC(c3cc(Cl)c(Cl)c(Cl)c3)(C(F)(F)F)C2O)cc1 (mixture of isomers) [A2-16] | 100 | 100 | 100 |  |  |  |  | 
CSCC(=O)NCc1ccc(N2CCC(c3cc(C(F)(F)F)cc(C(F)(F)F)c3)(C(F)(F)F)C2O)nc1Br (mixture of isomers) [A3-163] | 100 | 100 | 100 | 100 | 100 |  |  | 
C[S+]([O-])CC(=O)NCc1ccc(N2CCC(c3cc(C(F)(F)F)cc(C(F)(F)F)c3)(C(F)(F)F)C2O)nc1Br (mixture of isomers) [A3-164] | 98 | 100 | 100 | 100 | 100 |  |  | 
CCC(=O)NCc1ccc(N2CCC(c3cc(Cl)c(F)c(Cl)c3)(C(F)(F)F)C2O)nc1C(F)(F)F (mixture of isomers) [A3-200] | 100 | 100 | 100 |  |  |  |  | 
O=C(NCc1ccc(N2CCC(c3cc(Cl)c(F)c(Cl)c3)(C(F)(F)F)C2O)nc1C(F)(F)F)C1CC1 (mixture of isomers) [A3-203] | 100 | 100 | 100 |  |  |  |  | 

Structure (SMILES) | acaricidal activity [1, 4] [%] | insecticidal activity [2, 4] [%] | insecticidal activity (pesticidal ratio) [3, 4] [%] | insecticidal activity [2, 5] [%] | insecticidal activity (pesticidal ratio) [3, 5] [%] | acaricidal activity [1, 5] [%] | pest or weed control at 20 ppm ([1]; Tetranychus urticae, 168 h, active compound concentration 20 ppm, read-out: acaricidal activity) [%] | pest or weed control at 20 ppm ([3]; Spodoptera litura, 168 h, active compound concentration 20 ppm, read-out: insecticidal activity (pesticidal ratio)) [%]
CCC(=O)NCc1ccc(N2CCC(c3cc(Cl)c(F)c(Cl)c3F)(C(F)(F)F)C2O)nc1C(F)(F)F (mixture of isomers) [A3-211] | 100 | 100 | 100 | 100 | 100 | 100 |  | 
CCC(=O)NCc1ccc(N2CCC(c3cc(Cl)cc(C(F)(F)F)c3)(C(F)(F)F)C2O)nc1C(F)(F)F (mixture of isomers) [A3-266] | 100 | 100 | 100 |  |  |  |  | 
O=C(NCc1ccc(N2CCC(c3cc(Cl)cc(C(F)(F)F)c3)(C(F)(F)F)C2O)nc1C(F)(F)F)C1CC1 (mixture of isomers) [A3-269] | 100 | 100 | 100 |  |  |  |  | 
CCC(=O)NCc1ccc(N2CCC(c3cccc(C(F)(F)F)c3)(C(F)(F)F)C2O)cc1C(F)(F)F (racemic) [A1-294] | 100 | 100 | 100 |  |  |  |  | 
O=C(NCc1ccc(N2CCC(c3cccc(C(F)(F)F)c3)(C(F)(F)F)C2O)cc1C(F)(F)F)C1CC1 (racemic) [A1-297] | 100 | 100 | 100 |  |  |  |  | 
COCCC(=O)NCc1ccc(N2CCC(c3cc(Cl)cc(Cl)c3)(C(F)(F)F)C2O)cc1Cl (stereo not shown) [A1-8] | 100 | 100 |  |  |  |  |  | 
CC(=O)NCc1ccc(N2CCC(c3cc(Cl)c(Cl)c(Cl)c3)(C(F)(F)F)C2O)cc1Cl (stereo not shown) [A1-12] | 100 |  | 100 |  |  |  |  | 
CCCC(=O)NCc1ccc(N2CCC(c3cc(Cl)cc(Cl)c3)(C(F)(F)F)C2O)cc1C(F)(F)F (stereo not shown) [A1-36] | 100 |  | 100 |  |  |  |  | 
O=C(CC1CC1)NCc1ccc(N2CCC(c3cc(Cl)cc(Cl)c3)(C(F)(F)F)C2O)cc1C(F)(F)F (stereo not shown) [A1-39] | 100 | 100 |  |  |  |  |  | 
COCCC(=O)NCc1ccc(N2CCC(c3cc(Cl)cc(Cl)c3)(C(F)(F)F)C2O)cc1C(F)(F)F (stereo not shown) [A1-41] | 100 |  | 100 |  |  |  |  | 
CC(=O)NCc1ccc(N2CCC(c3cc(Cl)c(Cl)c(Cl)c3)(C(F)(F)F)C2O)cc1C(F)(F)F (stereo not shown) [A1-45] | 100 |  | 100 |  |  |  |  | 
N#CCC(=O)NCc1ccc(N2CCC(c3cc(Cl)c(Cl)c(Cl)c3)(C(F)(F)F)C2O)cc1Br (stereo not shown) [A1-525] |  |  |  |  | 100 | 100 |  | 
CCC(=O)NCc1ccc(N2CCC(c3cc(Cl)c(Cl)c(Cl)c3)(C(F)(F)F)C2O)nc1C (stereo not shown) [A3-79, N-({6-[2-hydroxy-3-(3,4,5-trichlorophenyl)-3-(trifluoromethyl)-pyrrolidin-1-yl]-2-methylpyridin-3-yl}methyl)propanamide] |  |  |  |  |  |  | 100 | 100
CC(C)CC(=O)NCc1ccc(N2CCC(c3cc(Cl)c(Cl)c(Cl)c3)(C(F)(F)F)C2O)nc1C(F)(F)F (stereo not shown) [A3-288] | 100 |  | 100 |  | 100 | 100 |  | 
CCNC(=O)NCc1ccc(N2CCC(c3cc(Cl)c(Cl)c(Cl)c3)(C(F)(F)F)C2O)nc1C(F)(F)F (stereo not shown) [A3-297] | 100 |  | 100 |  | 100 | 100 |  | 
CC(=O)NCc1ccc(N2CCC(c3cc(Cl)c(F)c(Cl)c3F)(C(F)(F)F)C2O)nc1Br (stereo not shown) [A3-322] | 98 |  |  |  | 100 |  |  | 
N#CCC(=O)NCc1ccc(N2CCC(c3cc(Cl)c(Cl)c(Cl)c3)(C(F)(F)F)C2O)nc1C(F)(F)F (stereo not shown) [A3-421] | 100 |  |  |  | 100 |  |  | 
